Source: PubChem BioAssay AID1259411 (Chemical Carcinogenesis Research Information System (CCRIS), 2018)
The source made the active and inactive calls. How the calls were made is not given here.

Tested on: rodent carcinogenicity bioassays, tumor incidence
Experiment: CCRIS carcinogenicity studies
Method in brief: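 NCI-built, expert-reviewed records of carcinogenicity and related test outcomes (mutagenicity, tumor promotion/inhibition) compiled from published and report sources, historical span 1985-2011, not updated.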

In the case of `CCOC(N)=O`, the carcinogen call (Species: MOUSE, Strain/Sex: ICR/FEMALE, Route: INHALATION, Dose: 0, 0.25 UG/ML AIR FOR 5 D (TOTAL DOSE 1.25 UG/ML/D) (STUDY DURATION: 5 MO), Tumor Site: Type of Lesion: LUNG: TUMOR, HEMATOPOIETIC SYSTEM: LEUKEMIA) is reported as “active; positive”, the carcinogen call (Species: MOUSE, Strain/Sex: ICR/FEMALE, Route: INHALATION, Dose: 0, 0.25 UG/ML AIR FOR 10 D (TOTAL DOSE 2.5 UG/ML/D) (STUDY DURATION: 5 MO), Tumor Site: Type of Lesion: LUNG: TUMOR) is reported as “active; positive” and the carcinogen call (Species: MOUSE, Strain/Sex: ICR/FEMALE, Route: INHALATION, Dose: 0, 1.29 UG/ML AIR FOR 0.25 D (TOTAL DOSE 0.32 UG/ML/D) (STUDY DURATION: 5 MO), Tumor Site: Type of Lesion: LUNG: TUMOR, HEMATOPOIETIC SYSTEM: LEUKEMIA) is reported as “active; positive”. The carcinogen call (Species: MOUSE, Strain/Sex: ICR/FEMALE, Route: INHALATION, Dose: 0, 1.29 UG/ML AIR FOR 1 D (TOTAL DOSE 1.29 UG/ML/D) (STUDY DURATION; 5 MO), Dose: 0, 1.29 UG/ML AIR FOR 1 D (TOTAL DOSE 1.29 UG/ML/D) (STUDY DURATION; 5 MO), Tumor Site: Type of Lesion: LUNG: TUMOR, HEMATOPOIETIC SYSTEM: LEUKEMIA) was “active; positive”, the carcinogen call (Species: MOUSE, Strain/Sex: ICR/FEMALE, Route: INHALATION, Dose: 0, 1.29 UG/ML AIR FOR 2 D (TOTAL DOSE 2.58 UG/ML/D) (STUDY DURATION: 5 MO), Tumor Site: Type of Lesion: LUNG: TUMOR, HEMATOPOIETIC SYSTEM: LEUKEMIA) was “active; positive” and the carcinogen call (Species: MOUSE, Strain/Sex: ICR/FEMALE, Route: INHALATION, Dose: 0, 1.29 UG/ML AIR FOR 4 D (TOTAL DOSE 5.16 UG/ML/D) (STUDY DURATION: 5 MO), Tumor Site: Type of Lesion: LUNG: TUMOR, HEMATOPOIETIC SYSTEM: LEUKEMIA) was “active; positive”. For the same compound, the carcinogen call (Species: MOUSE, Strain/Sex: ICR/FEMALE, Route: INHALATION, Dose: 0, 1.29 UG/ML AIR FOR 5 D (TOTAL DOSE 6.45 UG/ML/D) (STUDY DURATION: 5 MO), Tumor Site: Type of Lesion: LUNG: TUMOR, HEMATOPOIETIC SYSTEM: LEUKEMIA) was “active; positive”, the carcinogen call (Species: MOUSE, Strain/Sex: ICR/MALE, Route: INHALATION, Dose: 0, 0.25 UG/ML AIR FOR 10 D (TOTAL DOSE 2.5 UG/ML/D) (STUDY DURATION: 12 MO), Tumor Site: Type of Lesion: LUNG: ADENOCARCINOMA, HEMATOPOIETIC SYSTEM: LEUKEMIA, LIVER: HEPATOMA, Tumor Site: Type of Lesion: LUNG: ADENOCARCINOMA, HEMATOPOIETIC SYSTEM: LEUKEMIA, LIVER: HEPATOMA) was “active; positive” and the carcinogen call (Species: MOUSE, Strain/Sex: ICR/MALE, Route: INHALATION, Dose: 0, 1.29 UG/ML AIR FOR 4 D (TOTAL DOSE 5.16 UG/ML/D) (STUDY DURATION: 12 MO), Tumor Site: Type of Lesion: LUNG: ADENOCARCINOMA, HEMATOPOIETIC SYSTEM: LEUKEMIA, LIVER: HEPATOMA, Tumor Site: Type of Lesion: LUNG: ADENOCARCINOMA, HEMATOPOIETIC SYSTEM: LEUKEMIA, LIVER: HEPATOMA) was “active; positive”. The carcinogen call (Species: MOUSE, Strain/Sex: STRAIN-A/MALE, Route: INTRAPERITONEAL, Dose: 0, 1.12, 4.6 MMOL/KG IN ISOTONIC SALINE ONCE AT 6 WK OF AGE (STUDY DURATION: 16 WK), Dose: 0, 1.12, 4.6 MMOL/KG IN ISOTONIC SALINE ONCE AT 6 WK OF AGE (STUDY DURATION: 16 WK), Tumor Site: Type of Lesion: LUNG: ADENOMA) was “active; positive”, the carcinogen call (Species: MOUSE, Strain/Sex: SWISS WEBSTER/FEMALE, Route: INTRAVENOUS, Dose: 0, 3.3 MMOL ONCE ADMINISTERED TO VIRGIN FEMALES AT 12 WK OF AGE (STUDY DURATION: 6 MO), Tumor Site: Type of Lesion: LUNG: ADENOMA) was “active; positive” and the carcinogen call (Species: MOUSE, Strain/Sex: SWISS WEBSTER/FEMALE, Route: INTRAVENOUS, Dose: 0, 3.3 MMOL/KG ONCE ADMINISTERED TO MOTHERS ON GESTATIONAL DAY 14 (STUDY DURATION: 6 MO), Tumor Site: Type of Lesion: LUNG: ADENOMA) was “active; positive”. The carcinogen call (Species: MOUSE, Strain/Sex: SWISS WEBSTER/FEMALE, Route: TRANSPLACENTAL, Dose: 0, 3.3 MMOL/KG ONCE BY INTRAVENOUS ADMINISTRATION TO MOTHERS ON GESTATIONAL DAY 14 (STUDY DURATION: 6 MO), Tumor Site: Type of Lesion: LUNG: ADENOMA) was “active; positive”, the carcinogen call (Species: MOUSE, Strain/Sex: SWISS WEBSTER/MALE, Route: TRANSPLACENTAL, Dose: 0, 3.3 MMOL/KG ONCE BY INTRAVENOUS ADMINISTRATION TO MOTHERS ON GESTATIONAL DAY 14 (STUDY DURATION: 6 Mo), Tumor Site: Type of Lesion: LUNG: ADENOMA) was “active; positive” and the carcinogen call (Species: MOUSE, Strain/Sex: SWISS/MALE,FEMALE, Route: ORAL, Dose: 0, 0.4% IN DRINKING WATER, 2 10-D TREATMENTS, Dose: 0, 0.4% IN DRINKING WATER, 2 10-D TREATMENTS, Tumor Site: Type of Lesion: LUNG: ADENOMA, LYMPHOMA, LIVER: HEMANGIOMA, INTEGUMENTARY SYSTEM (SKIN): PAPILLOMA, SEBACEOUS CARCINOMA, Tumor Site: Type of Lesion: LUNG: ADENOMA, LYMPHOMA, LIVER: HEMANGIOMA, INTEGUMENTARY SYSTEM (SKIN): PAPILLOMA, SEBACEOUS CARCINOMA) was “active; positive”. For the same compound, the carcinogen call (Species: Mouse, Strain/Sex: 129 x MF1 Gstp-null (12-16 males and females), Route: Intraperitoneal, Dose: 10 mg/kg, once, study duration 5 mo, Tumor Site: Type of Lesion: Lung: adenoma (incidence 92% vs 27% in controls, multiplicity 3.8 vs 0.3 in controls)) was “inactive; negative”, the carcinogen call (Species: Mouse, Strain/Sex: 129 x MF1 wild type (14-16 males and females), Route: Intraperitoneal, Dose: 10 mg/kg, once, study duration 5 mo, Tumor Site: Type of Lesion: Lung: adenoma (incidence 29% vs 25% in controls, multiplicity 0.4 vs 0.3 in controls)) was “inactive; negative” and the carcinogen call (Species: RAT, Route: INTRAPERITONEAL, ORAL, Tumor Site: Type of Lesion: LIVER) was “active; positive”. The carcinogen call (Species: RAT, Route: INTRAPERITONEAL, Tumor Site: Type of Lesion: LIVER, NERVOUS SYSTEM) was “active; positive” and the carcinogen call (Species: RAT, Route: SUBCUTANEOUS, Tumor Site: Type of Lesion: EYE (IRIS)) was “active; positive”.
